Some results are limits rather than exact numbers.

The source of these data is EPA's ToxValDB 9.5 (doi:10.2903/j.efsa.2009.178r).

The test system of data set [1] is Typhlodromus pyri. The data set is described as follows: LR50; higher = less toxic. Conditions: not reported; mortality.
Data set [2] relates to Aphidius rhopalosiphi. The data set is described as follows: LR50; higher = less toxic. Conditions: not reported; mortality.
The test system of data set [3] is Daphnia magna. The settings on record: chronic/long-term; duration: 21 days; mobility.
Data set [4] concerns Canidae. The settings on record: chronic; duration: 1 years; oral; Dog Other; histopathology: nonneoplastic.
In data set [5] the test system is Apis mellifera. Conditions: acute, mortality.
Data set [6] relates to Procambarus sp. The settings on record: acute; duration: 96 hours; mortality.
In data set [7] the test system is Rattus norvegicus.
Data set [8] has as its system Tagia sp. The settings on record: acute; mortality.
Data set [9] concerns Colinus virginianus. The settings on record: acute; oral; diet; mortality.
The subject of data set [10] is Oncorhynchus mykiss.
Data set [11] concerns Anas platyrhynchos.

In general, NOAEL refers to the highest tested level that showed no adverse finding. `COC(=O)c1ccccc1CS(=O)(=O)NC(=O)Nc1nc(OC)cc(OC)n1` [Bensulfuron-methyl]: the LR50 in data set [1] and in data set [2] was > 600 g/ha in each case. The NOEC turned out to be 12 mg/L in data set [3]; 1.5 mg/L in [10] (chronic/long-term, duration: 90 days, other); 83 mg/kg-day in [11] (reproductive). The compound further yielded an NOAEL in data set [4] of 19.9 mg/kg-day. Besides, the LD50 in data set [5] (dermal) was > 100 µg/piece; in data set [5] (oral, unspecified) it was > 51.4 µg/piece; in data set [7] (acute, oral, mortality), ≥ 5000 mg/kg; in [11] (acute, oral, unspecified, M/F, mortality), ≥ 2510 mg/kg. The LC50 in data set [6] was > 71 µg/mL; in data set [8], > 1000 mg/kg; in [9], > 1680 mg/kg-day; in [10] (acute, duration: 96 hours, mortality), > 66 µg/mL; in data set [11] (short-term, oral, feed, mortality), > 1690 mg/kg-day. The compound also showed an NOEL in [7] (reproduction developmental, reproduction) of 20.9 mg/kg-day.
